Experimental data reported in patent US20110054025A1, “USE OF A PENTACYCLIC TRITERPENE IN A PHARMACEUTICAL COMPOSITION FOR THE TREATMENT OF MULTIPLE SCLEROSIS” (CONSEJO SUPERIOR DE INVESTIGACIONES CIENTIFICAS, priority 2008, published 2011).
“Also recorded” adds a separate entry of the source.

Columns and labels:
Type in all cases: in vivo, C57BL/6 mice
[1] = tested on: blood-brain barrier permeability; experiment: Evans blue extravasation (blood-brain barrier permeability) in CNS tissues of EAE mice; details: spinal cord, brain and cerebellum, vs untreated EAE animals
Experimental: Evans blue dye is able to bind quantitatively to albumin, both in vivo and in vitro. This property has been widely used for quantification of protein extravasation as an index of increased vascular permeability and, indirectly, of tissue damage. The Evans Blue, once extravasated into the tissues, is removed from them, and then quantified by visible spectrophotometry.
Mice from all experimental groups were given 30 mg/kg of Evans Blue i.p. Then, the spinal cord, cerebrum and cerebellum was removed and washed in saline. The dye was extracted from the CNS tissues with formamide and the concentration was determined by measuring the absorvance at 620 nm. CNS tissue was dried 24 h at 60° C. and weighed. The extravasated dye was expressed as μg of Evans Blue/mg dried weight of the tissue.

[2] = tested on: leukocyte rolling and adhesion on brain microvasculature; experiment: Intravital fluorescence microscopy of leukocyte-endothelium interactions in brain microvasculature of EAE mice; details: vs untreated EAE group
Experimental: Intravital microscopy techniques allow the study of leukocyte-endothelium interactions. […] To make a precise study of leukocyte-endothelium interactions, we first made a record of the venule for one minute using a camcorder, and in a second time, a more detailed analysis was performed. The parameters of interest were the number of leukocytes adhering to the venular endothelium (number of leukocytes stationary for more than 30 seconds), and the number of rolling leukocytes (number of white cells per minute moving at a velocity less than that of erythrocytes).
The craniotomy was performed on the parietal zone. Animals received i.v. administration of rhodamine 6G (0.3 mg/kg body weight) to fix leucocytes. The fluorescence associated to rhodamine 6G was visualized at 510-560 nm by epi-ilumination. The microscope (20×) was used for observing micro-circulating events in brain.

Osteopontin = Osteopontin in CNS tissues of EAE mice by ELISA; details: spinal cord, brain and cerebellum, day 21 post-immunization, vs EAE mice
Experimental: Animals of the different experimental groups were sacrificed at day 21 post-immunization and CNS protein extracts (cerebral cortex, cerebellum and spinal cord) were prepared by homogenization in a solution: 0.4 M NaCl, 0.05% Tween 20, 0.5% BSA, 0.1 mM phenylmethylsulfonyl fluoride, 0.1 mM benzetonium chloride, 10 mM EDTA and 20 KI aprotinin (100 mg tissue/ml). The homogenate was centrifuged at 10,000 rpm for 10 min at 4° C. The concentration of osteopontin was determined in the supernatants by a commercial ELISA kit.

[3] = tested on: experimental autoimmune encephalomyelitis (EAE) mice; experiment: Experimental autoimmune encephalomyelitis (EAE) in mice: clinical score, body weight, survival
Experimental: In the experiments we used fifteen animals per group. EAE was induced as described (Slavin A. Autoimmunity 1998, 28: 109) in C57BL mice by […]. The immunization was carried out with 100 μg of a partial peptide of myelin/oligodendrocyte glycoprotein ([…]) in complete Freund's adjuvant containing 4 mg of Mycobacterium tuberculosis H37Ra in 1 ml. The mice were immunized by subcutaneous injection of this emulsion on day 0. In addition, on day 0 and 2, were administered intraperitoneally 300 ng/200 μl of Bordetella pertussis toxin. The administration of 6 mg/kg of oleanolic acid was performed intraperitoneally once a day, beginning:
1.—12 days after induction of EAE, when clinical symptoms were detected, until the end of the experiment (21 days after induction) (OA1), and
2.—after 7 days of induction of EAE, before the onset of the disease, until the end of the experiment (21 days after induction) (OA2).
Mice were examined, weighed and scored daily in a double-blind manner for signs of EAE. OA-treated EAE mice were compared with a group of EAE animals treated with placebo, with untreated control animals or control animals received the same daily dose oleanolic acid. In addition, a pathologic evaluation was performed to confirm the effect of improving the state of the disease. The weight of the mice in each group is represented in FIGS. 1 A and 2 A. The level of paralysis reached by each group of mice is shown in FIGS. 1 B and 2 B.
The effect of disease improvement (clinical effect) by the action of oleanolic acid is scored and evaluated with the pattern presented below.
Grade 0.5, partial loss/reduced tail tone, assessed by inability to curl the distal end of the tail (Tail 50% or ⅔).
Grade 1.0, tail atony 100%
Grade 1.5, slightly/moderately clumsy gait, impaired righting ability, or combination.
Grade 2.0, hind limb weakness, partial (1 or 2)
Grade 2.5, partial (1 or 2) hind limb paralysis.
Grade 3, complete hind limb paralysis.
Grade 3.5, limb weakness.
Grade 4, tetraplegic. Complete limb paralysis
Grade 5, moribund state or death.
Chronic progressive EAE disease was induced in adult 8-10-wk-old female C57BL/J6 mice following the protocol described by (Slavin A. Autoimmunity 1998, 28:109-20). Mice were injected in the tail base bilaterally with an innoculum containing 100 μg of MOG peptide 35-55 emulsified in complete Freund's adjuvant containing 0.4 mg/ml Mycobacterium tuberculosis H37 RA. Then, i.p. injection 300 ng/animal of B. pertussis toxin was administered by two times with an interval of 48 hours. Mice were examined daily to monitor weight loss and the onset of neurological symptoms

CC1(C)CC[C@]2(C(=O)O)CC[C@]3(C)C(=CCC4[C@@]5(C)CC[C@H](O)C(C)(C)C5CC[C@]43C)C2C1 (stereo partly drawn) [oleanolic acid, 3β-hydroxyolean-12-en-28-oic acid]
Evans blue leakage in CNS tissues (vascular permeability) ([1]; protocol EAE+OA1): significantly reduced leakage
Evans blue leakage in CNS tissues (vascular permeability) ([1]; protocol EAE+OA2): significantly reduced leakage
flow of leukocytes rolling on the endothelium ([2]; protocol EAE+OA1): significant decrease
leukocytes adhering to the endothelium ([2]; protocol EAE+OA1): significant decrease
flow of leukocytes rolling on the endothelium ([2]; protocol EAE+OA2): significant decrease
leukocytes adhering to the endothelium ([2]; protocol EAE+OA2): significant decrease
Osteopontin expression in CNS tissues (Osteopontin; protocol OA1): significantly reduced
Osteopontin expression in CNS tissues (Osteopontin; second protocol (printed OA1, FIG. 5: EAE+OA2)): significantly reduced
clinical status / severity of the disease (signs of paralysis score) ([3]; OA1: 6 mg/kg ip daily from day 12 after induction (onset of clinical symptoms) to day 21, vs untreated EAE mice): decreases the severity of the disease; also recorded: significant improvement in clinical status of the disease
body weight ([3]; OA1: 6 mg/kg ip daily from onset of symptoms, recovery effect (FIG. 1A)): reduction of body weight was suppressed
body weight ([3]; OA2: 6 mg/kg ip daily from day 7, preventive effect (FIG. 2A)): reduction of body weight was suppressed
onset of the disease ([3]; OA2: prophylactic, 6 mg/kg ip daily from day 7 after induction to day 21, 6 mg/kg): delays the onset of EAE; also recorded: delay in the onset of the disease
severity of EAE (clinical signs) ([3]; OA2: prophylactic, 6 mg/kg ip daily from day 7 after induction to day 21, vs untreated EAE mice): significantly attenuated
survival (time until animals die) ([3]; oleanolic acid given at the onset of symptoms, placebo-treated EAE mice die within first 40 days): ≥ 60 days post-induction
